Experimental data published in patent US12227520B2 (priority 2019, dated 2025).
Read-outs that look alike come from different tables or passages of the source.

Assays:
[1] = Cytotoxicity assay in MT-4 cells; format: cell-based, human; conditions: human
Summary of the method: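 For cytotoxicity, uninfected MT-4 cells were incubated with compounds 5 days at 37 °C, with 10 μM puromycin marking base cytotoxicity. Parallel plates used HIV-1 IIIB-infected (1:250 stock dilution) or mock cells with 5 μM AZT and no-drug controls. Read-out: CellTiter-Glo chemiluminescence.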

[2] = test system: pLai RLuc reporter virus; experiment: microbe, parasite or virus in culture; format: cell-based, HIV; conditions: Human immunodeficiency virus 1, 72 h
Protocol: To quantify the amount of protein binding to human serum, compounds were serially diluted (1:3) in DMSO and acoustically transferred onto 384-well assay plates via a Labcyte ECHO robot. Each plate contained up to 8 test compounds, including negative and positive controls, (DMSO, 5 μM AZT respectively). Assay plates were prepared in duplicate, and tested in either CCM (cell culture media) or HS/CCM (human serum/cell culture media). MT-4 cells were first pre-infected with pLai RLuc reporter virus for 2 h at 37° C., then further diluted in either CCM (RPMI media, 10% FBS, 1% P/S) or HS/CCM (RPMI media, 10% FBS, 50% HS, 1% P/S), and subsequently added to each plate using a Biotek Micro Flow dispenser. After a 72-h incubation in a humidified and temperature controlled incubator (37° C.), Renilla Glo (Promega) was added to all assay plates and chemiluminescence read using an Envision plate-reader. […] To determine the amount of protein binding, EC50 fold shifts (or EC50 shifts) were calculated by dividing EC50 (HS/CCM)/EC50 (CCM).

[3] = test system: HIV-1 (IIIB); experiment: Antiviral assay in MT-4 cells (HIV MT-4 antiviral assay); format: cell-based; conditions: Human immunodeficiency virus 1, IIIB, MT4, 120 h, HIV-1 (IIIB) in MT-4 cells, 5 days incubation; read-out: EC50
Summary of the method: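 Read-out is CellTiter-Glo chemiluminescence after 5-day culture at 37° C, giving protection of MT-4 cells from HIV-1 IIIB cytopathicity. Compounds tested in 1:3 dilution series in complete RPMI; controls were no drug, mock infection and 5 μM AZT.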

[4] = uninfected MT-4 cells, 5 days incubation, read-out: CC50
[5] = read-out: Antiviral Serum Shift RLuc 50% HS, HS/CCM (RPMI media, 10% FBS, 50% HS, 1% P/S), 72-h incubation
[6] = read-out: Antiviral Serum Shift RLuc CCM, CCM (RPMI media, 10% FBS, 1% P/S), 72-h incubation

## O=C(NCc1ccc(F)c(Cl)c1F)c1cn2c(c(O)c1=O)C(=O)N1CC2CCc2cc(F)c(F)cc21 (stereo not drawn) [Example 69, N-(3-chloro-2,4-difluorobenzyl)-2,3-difluoro-7-hydroxy-6,8-dioxo-6,8,13,14-tetrahydro-12H-5,12-methanobenzo[e]pyrido[1,2-a][1,4]diazonine-9-carboxamide]
[1]; [4]
  CC50 at 5 days: 36700 nM
[2]; [5]
  EC50: 1.06 nM
[2]; [6]
  EC50: 0.199 nM
[3]
  EC50: 1.95 nM

## O=C(NCc1ccc(F)cc1F)c1cn2c(c(O)c1=O)C(=O)N1CC3CC3CC2C1 (single isomer, unassigned) [Example 42-1, N-(2,4-difluorobenzyl)-5-hydroxy-4,6-dioxo-1,1a,2,4,6,10,11,11a-octahydro-3,10-methanocyclopropa[f]pyrido[1,2-a][1,4]diazonine-7-carboxamide]
[1]; [4]
  CC50 at 5 days: 7490 nM
[2]; [5]
  EC50: 1.34 nM
[2]; [6]
  EC50: 0.28 nM
[3]
  EC50: 1.6 nM

## O=C(NCc1ccc(F)cc1F)c1cn2c(c(O)c1=O)C(=O)N1CCCC3(CC3)[C@H]2C1 [Example 57-1, (7'S)—N-(2,4-difluorobenzyl)-12′-hydroxy-1′,11′-dioxo-1′,4′,5′,11′-tetrahydro-3′H,7′H-spiro[cyclopropane-1,6′-[2,7]methanopyrido[1,2-a][1,4]diazonine]-10′-carboxamide]
[1]; [4]
  CC50 at 5 days: 6900 nM
[2]; [5]
  EC50: 2.36 nM
[2]; [6]
  EC50: 0.228 nM
[3]
  EC50: 1.22 nM

## O=C(NCc1ccc(F)c(Cl)c1Cl)c1cn2c(c(O)c1=O)C(=O)N1CCCC[C@H]2C1 [Example 62, (7S)—N-(2,3-dichloro-4-fluorobenzyl)-12-hydroxy-1,11-dioxo-1,4,5,6,7,11-hexahydro-3H-2,7-methanopyrido[1,2-a][1,4]diazonine-10-carboxamide]
[1]; [4]
  CC50 at 5 days: 3460 nM
[2]; [5]
  EC50: 4.22 nM
[2]; [6]
  EC50: 0.292 nM
[3]
  EC50: 1.27 nM

## O=C(NCc1c(F)cc(F)cc1F)c1cn2c(c(O)c1=O)C(=O)N1C[C@@H]2CCCC12CC2 [Example 129, (7'S)-12′-hydroxy-1′,11′-dioxo-N-(2,4,6-trifluorobenzyl)-1′,4′,5′,6′,7′,11′-hexahydrospiro[cyclopropane-1,3′-[2,7]methanopyrido[1,2-a][1,4]diazonine]-10′-carboxamide]
[1]; CC50
  CC50 at 5 days: 7440 nM
[2]; [5]
  EC50: 4.21 nM
[2]; [6]
  EC50: 0.309 nM
[3]
  EC50: 1.53 nM

## O=C(NCc1c(F)cc(F)cc1F)c1cn2c(c(O)c1=O)C(=O)N1C[C@@H]2CCc2sccc21 [Example 104-1, (11S)-6-hydroxy-5,7-dioxo-N-(2,4,6-trifluorobenzyl)-5,7,12,13-tetrahydro-11H-4,11-methanopyrido[1,2-a]thieno[3,2-e][1,4]diazonine-8-carboxamide]
[1]; [4]
  CC50 at 5 days: 11900 nM
[2]; [5]
  EC50: 1.99 nM
[2]; [6]
  EC50: 0.323 nM
[3]
  EC50: 1.48 nM

## O=C(NCc1c(F)cc(F)cc1F)c1cn2c(c(O)c1=O)C(=O)N1Cc3cc(F)ccc3C[C@H]2C1 [Example 145, (6S)-10-fluoro-1-hydroxy-2,14-dioxo-N-(2,4,6-trifluorobenzyl)-2,7,12,14-tetrahydro-6H-6,13-methanobenzo[f]pyrido[1,2-a][1,4]diazonine-3-carboxamide]
[1]; [4]
  CC50 at 5 days: 8850 nM
[2]; [5]
  EC50: 0.92 nM
[2]; [6]
  EC50: 0.218 nM
[3]
  EC50: 0.822 nM

## O=C(NCc1ccc(F)cc1F)c1cn2c(c(O)c1=O)C(=O)N1CCCC(F)[C@H]2C1 (stereo partly drawn) [Example 172-2, (7R)—N-(2,4-difluorobenzyl)-6-fluoro-12-hydroxy-1,11-dioxo-1,4,5,6,7,11-hexahydro-3H-2,7-methanopyrido[1,2-a][1,4]diazonine-10-carboxamide]
[1]; [4]
  CC50 at 5 days: 12800 nM
[2]; [5]
  EC50: 2.62 nM
[2]; [6]
  EC50: 0.417 nM
[3]
  EC50: 1.47 nM

## Cn1cc2c(n1)CC[C@H]1CN2C(=O)c2c(O)c(=O)c(C(=O)NCc3c(F)cc(F)cc3F)cn21 [Example 85-1, (11S)-6-hydroxy-2-methyl-5,7-dioxo-N-(2,4,6-trifluorobenzyl)-2,5,7,11,12,13-hexahydro-4,11-methanopyrazolo[4,3-e]pyrido[1,2-a][1,4]diazonine-8-carboxamide]
[1]; [4]
  CC50 at 5 days: > 49900 nM
[2]; [5]
  EC50: 1.57 nM
[2]; [6]
  EC50: 1.06 nM
[3]
  EC50: 5.64 nM

## C[C@H]1CC(F)(F)C[C@H]2CN1C(=O)c1c(O)c(=O)c(C(=O)NCc3c(F)cc(F)cc3F)cn12 [Example 113, (3S,7S)-5,5-difluoro-12-hydroxy-3-methyl-1,11-dioxo-N-(2,4,6-trifluorobenzyl)-1,4,5,6,7,11-hexahydro-3H-2,7-methanopyrido[1,2-a][1,4]diazonine-10-carboxamide]
[1]; [4]
  CC50 at 5 days: 16900 nM
[2]; [5]
  EC50: 0.62 nM
[2]; [6]
  EC50: 0.514 nM
[3]
  EC50: 1.42 nM

## O=C(NCc1ccc(F)c(Cl)c1F)c1cn2c(c(O)c1=O)C(=O)N1Cc3cc(F)c(F)cc3C[C@@H]2C1 [Example 139-1, (6R)—N-(3-chloro-2,4-difluorobenzyl)-9,10-difluoro-1-hydroxy-2,14-dioxo-2,7,12,14-tetrahydro-6H-6,13-methanobenzo[f]pyrido[1,2-a][1,4]diazonine-3-carboxamide]
[1]; [4]
  CC50 at 5 days: > 50000 nM
[2]; [5]
  EC50: 84.3 nM
[2]; [6]
  EC50: 3.93 nM
[3]
  EC50: 14.8 nM

## O=C(NCc1ccc(F)cc1F)c1cn2c(c(O)c1=O)C(=O)N1CCCC[C@@H]2C1 (single isomer, unassigned) [Example 25-1]
[1]; [4]
  CC50 at 5 days: 11500 nM
[2]; [5]
  EC50: 36.6 nM
[2]; [6]
  EC50: 0.42 nM
[3]
  EC50: 1.3 nM

## O=C(NCc1ccc(F)cc1F)c1cn2c(c(O)c1=O)C(=O)N1CCc3cc(F)c(F)cc3[C@H]2C1 (single isomer, unassigned) [Example 111-1]
[1]; [4]
  CC50 at 5 days: 5910 nM
[2]; [5]
  EC50: 7.12 nM
[2]; [6]
  EC50: 0.447 nM
[3]
  EC50: 2.01 nM

## O=C(NCc1c(F)cc(F)cc1F)c1cn2c(c(O)c1=O)C(=O)N1CCc3ccc(Br)cc3[C@H]2C1 (single isomer, unassigned) [Example 122-1]
[1]; [4]
  CC50 at 5 days: 4740 nM
[2]; [5]
  EC50: 4.78 nM
[2]; [6]
  EC50: 0.534 nM
[3]
  EC50: 2.57 nM

## O=C1CC[C@H]2CN(C1)C(=O)c1c(O)c(=O)c(C(=O)NCc3c(F)cc(F)cc3F)cn12 [Example 78, (7S)-12-hydroxy-1,4,11-trioxo-N-(2,4,6-trifluorobenzyl)-1,4,5,6,7,11-hexahydro-3H-2,7-methanopyrido[1,2-a][1,4]diazonine-10-carboxamide]
[1]; [4]
  CC50 at 5 days: > 50000 nM
[2]; [5]
  EC50: 3.76 nM
[2]; [6]
  EC50: 1.93 nM
[3]
  EC50: 9.56 nM

## C[C@]12CN(CCc3cc(F)c(F)cc31)C(=O)c1c(O)c(=O)c(C(=O)NCc3c(F)cc(F)cc3F)cn12 (single isomer, unassigned) [Example 120-2]
[1]; [4]
  CC50 at 5 days: 11100 nM
[2]; [5]
  EC50: 239 nM
[2]; [6]
  EC50: 14 nM
[3]
  EC50: > 59.4 nM

## O=C(NCc1ccc(F)c(Cl)c1F)c1cn2c(c(O)c1=O)C(=O)N1CCC=C(F)[C@H]2C1 (single isomer, unassigned) [Example 123-1]
[1]; [4]
  CC50 at 5 days: 13700 nM
[2]; [5]
  EC50: 3.67 nM
[2]; [6]
  EC50: 0.316 nM
[3]
  EC50: 2.05 nM

## O=C(NCc1ccc(F)c(F)c1F)c1cn2c(c(O)c1=O)C(=O)N1CCCC[C@H]2C1 [Example 161, (7S)-12-hydroxy-1,11-dioxo-N-(2,3,4-trifluorobenzyl)-1,4,5,6,7,11-hexahydro-3H-2,7-methanopyrido[1,2-a][1,4]diazonine-10-carboxamide]
[1]; [4]
  CC50 at 5 days: 4630 nM
[2]; [5]
  EC50: 1.01 nM
[2]; [6]
  EC50: 0.3 nM
[3]
  EC50: 2.1 nM

## O=C(NCc1c(F)cc(F)cc1F)c1cn2c(c(O)c1=O)C(=O)N1CCc3ccc(Cl)cc3[C@H]2C1 [Example 138, (13S)-11-chloro-4-hydroxy-3,5-dioxo-N-(2,4,6-trifluorobenzyl)-3,5,8,13-tetrahydro-7H-6,13-methanobenzo[g]pyrido[1,2-a][1,4]diazonine-2-carboxamide]
[1]; [4]
  CC50 at 5 days: 5020 nM
[2]; [5]
  EC50: 8.7 nM
[2]; [6]
  EC50: 0.708 nM
[3]
  EC50: 3.17 nM

## O=C(NCc1ccc(F)cc1F)c1cn2c(c(O)c1=O)C(=O)N1C[C@@H]2CCC[C@@H]1CF [Example 165, (3R,7S)—N-(2,4-difluorobenzyl)-3-(fluoromethyl)-12-hydroxy-1,11-dioxo-1,4,5,6,7,11-hexahydro-3H-2,7-methanopyrido[1,2-a][1,4]diazonine-10-carboxamide]
[1]; [4]
  CC50 at 5 days: 9610 nM
[2]; [5]
  EC50: 7.33 nM
[2]; [6]
  EC50: 0.351 nM
[3]
  EC50: 1.1 nM

## O=C(NCc1ccc(F)cc1)c1cn2c(c(O)c1=O)C(=O)N1CCCC[C@H]2C1 [Example 166, (7S)—N-(4-fluorobenzyl)-12-hydroxy-1,11-dioxo-1,4,5,6,7,11-hexahydro-3H-2,7-methanopyrido[1,2-a][1,4]diazonine-10-carboxamide]
[1]; [4]
  CC50 at 5 days: 15600 nM
[2]; [5]
  EC50: 1.62 nM
[2]; [6]
  EC50: 0.583 nM
[3]
  EC50: 2.5 nM
